According to the CheMixHub ionic liquid set:

Assay: xn = mol fraction of the nth substance listed
Conditions: for electrical conductivity: frequency 0.001 MHz

O=C(O)CC(=O)O + CC[n+]1ccn(C)c1.[Cl-]
Conditions	viscosity [mPa·s]
303.15 K, 101.33 kPa, x2 = 0.667	138.9

CCCC[N+]1(C)CCCC1.O=S(=O)([N-]S(=O)(=O)C(F)(F)F)C(F)(F)F + CO
101 kPa
Conditions	electrical conductivity [S/m]	viscosity [mPa·s]
293.15 K, x1 = 0.05	0.368	1.02
293.15 K, x1 = 0.26	1.77	8.31
293.15 K, x1 = 0.37	2.11	12.95
298.15 K, x1 = 0.26	1.93	7.2
303.15 K, x1 = 0.26	2.17	6.29
303.15 K, x1 = 0.42	2.61	11.11
308.15 K, x1 = 0.26	2.38	5.53
308.15 K, x1 = 0.47	2.85	10.87
308.15 K, x1 = 0.68	1.84	16.54
313.15 K, x1 = 0.32	2.79	6.15
313.15 K, x1 = 0.53	2.91	10.55
313.15 K, x1 = 0.68	2.08	14.3
313.15 K, x1 = 0.74	1.8	16.1
313.15 K, x1 = 0.84	1.29	21.3
313.15 K, x1 = 1	0.488	35.7
318.15 K, x1 = 0.21	2.4	3.3
318.15 K, x1 = 0.63	2.55	11.22
318.15 K, x1 = 0.68	2.27	12.47
318.15 K, x1 = 0.79	1.7	15.95
318.15 K, x1 = 0.84	1.43	18.39
318.15 K, x1 = 0.95	–	25.2

CCCCCCCCCCCCCCn1cc[n+](C)c1.[Br-] + O
electrical conductivity [S/m], 101 kPa
Conditions	298.15 K	308.15 K	318.15 K
x1 = 4.74e-06	0.00249	0.00401	0.00409
x1 = 9.35e-06	0.00459	0.00671	0.00708
x1 = 1.386e-05	0.0065	0.0093	0.0101
x1 = 1.825e-05	0.00834	0.011	0.0127
x1 = 2.252e-05	0.0101	0.0135	0.0154
x1 = 2.669e-05	0.0119	0.0154	0.0182
x1 = 3.076e-05	0.0136	0.0173	0.0206
x1 = 3.474e-05	0.0152	0.0199	0.0232
x1 = 3.862e-05	0.0167	0.0218	0.0253
x1 = 4.24e-05	0.0183	0.0238	0.028
x1 = 4.613e-05	0.0192	0.0252	0.0303
x1 = 4.973e-05	0.0199	0.0265	0.0322
x1 = 5.334e-05	0.0204	0.0273	0.0335
x1 = 5.676e-05	0.0209	0.0282	0.0345
x1 = 6e-05	0.0213	0.0288	0.0356
x1 = 6.343e-05	0.0217	0.0294	0.0365
x1 = 6.667e-05	0.0221	0.03	0.0372
x1 = 6.973e-05	0.0225	0.0305	0.0377
x1 = 7.28e-05	0.0229	0.0311	0.0383
x1 = 7.586e-05	0.0233	0.0316	0.0389
x1 = 7.892e-05	0.0236	0.0321	0.0396
x1 = 8.18e-05	0.024	0.0326	0.0408
x1 = 8.451e-05	0.0243	0.0329	0.0414
x1 = 8.739e-05	0.0246	0.0333	0.0418
